The values below come from patent publication US20240197890A1, “FLAVONE DERIVATIVES AND USES IN TARGETING CK2-MEDIATED DISEASES AND CONDITIONS” (Salk Institute for Biological Studies, priority 2020, published 2024).

Test [1] relates to NF-κB pS529. Briefly: Immunofluorescence of NF-κB and NF-κB pS529 in activated astrocytes. It is filed as cell-based, human. Conditions: after 1 h. As to the method:
Immunotluorescence. […] After treatment, cells were fixed with 4% paraformaldehyde solution for 20 min at room temperature and washed 3× with DPBS for 10 min each. The cells were permeabilized using 5% horse serum and 10% Triton X in DPBS for 15 min at room temperature and blocked with 5% horse serum in PBS for 30 min at room temperature. Cells were incubated with primary antibodies in blocking buffer either overnight at 4° C. or for 2 hours at room temperature. After incubation, cells were washed 3× with PBS, blocked using 5% horse serum in PBS for 30 min at room temperature, and incubated with Cy3 red-labeled or AF488 green-labeled secondary antibodies diluted in blocking buffer for 1 hour at room temperature. The cells were washed once with PBS for 10 min, then counter-stained with DAPI. The cells were washed 3× with PBS and mounted with glass coverslips and Immu-Mount solution. Images were obtained with the Zeiss fluorescent microscope. The following primary antibodies were used: rabbit anti-NF-κB (1:400; CST), mouse anti-phospho NF-κB S529 (20 ug/ml; Thermo Fisher), rabbit anti-CK2A1 (1:500; Bethyl), mouse anti-IKb alpha (1:400; CST), mouse anti-phospho IKb alpha (1:50; Santa Cruz), rabbit anti-phospho CK2A1 (1:25; Thermo Fisher), rabbit anti-phospho Cdc37 (1:50; Novus), mouse anti-phospho NF-κB S529 (1:25; R&D), rabbit anti-Cdc37 (1:100; CST), mouse anti-SQSTM1 (1:50; Santa Cruz), anti rabbit-phospho NF-κB S536 (1:1600; CST), anti rabbit-Akt (pan) (1:400; CST), anti mouse-phospho Akt S473 (1:500; Sigma).
To investigate the potential effects of CK2 activity on NF-κB, NF-κB and NF-κB pS529 were measured by immunofluorescence in activated astrocytes. […] At this timepoint, NF-κB pS529 levels were similar across all treatments, possibly as a result of slower turnover by pNF-κB species.

The test system of test [2] is AKT pS129. The test is described as follows: AKT pS129 levels in IL1β-stimulated primary astrocytes. It is filed as cell-based. The note with it: IL1-β for 5 h. From the text:
AKT pS129 is a known direct CK2 substrate.

Test [3] relates to CK2 Y255. Briefly: Immunofluorescence of CK2 Y255 phosphorylation in nuclei of primary human astrocytes. In kind it is cell-based. Conditions: 20 μM, 5 h. The protocol:
Immunotluorescence. […] After treatment, cells were fixed with 4% paraformaldehyde solution for 20 min at room temperature and washed 3× with DPBS for 10 min each. The cells were permeabilized using 5% horse serum and 10% Triton X in DPBS for 15 min at room temperature and blocked with 5% horse serum in PBS for 30 min at room temperature. Cells were incubated with primary antibodies in blocking buffer either overnight at 4° C. or for 2 hours at room temperature. After incubation, cells were washed 3× with PBS, blocked using 5% horse serum in PBS for 30 min at room temperature, and incubated with Cy3 red-labeled or AF488 green-labeled secondary antibodies diluted in blocking buffer for 1 hour at room temperature. The cells were washed once with PBS for 10 min, then counter-stained with DAPI. The cells were washed 3× with PBS and mounted with glass coverslips and Immu-Mount solution. Images were obtained with the Zeiss fluorescent microscope. […]

Test [4] relates to IL6 and IL8 expression in astrocytes. Briefly: Activation assay, ddPCR of cytokine expression in IL1-β-activated astrocytes. In kind it is cell-based, human. The note with it: astrocytes and microglia; FIG. 1D, FIG. 2C. The protocol:
Activation assays and ddPCR. HCA or H1-derived astrocytes were treated with vehicle (DMSO) or 20 μM compound and stimulated with IL1-B 10 ng/mL for 5 h. Cells were scraped into RNA-Bee and total RNA was purified using the Direct-zol RNA kit (Zymo Research). RNA concentration was measured using Nanodrop and RNA was reverse transcribed into cDNA using the High Capacity cDNA Reverse Transcriptase Kit (Applied Biosystems). Reaction mixes consisting of TaqMan FAM probe (IL6, IL8, CSNK2A1, CSNK2A2), control TaqMan ACTB-VIC probe (TFS 4326315E), ddPCR Supermix for Probes (Bio-Rad 186-3024), and cDNA were formed into oil droplets using the QX200 Droplet Generator. After amplification (Bio-Rad C1000 Touch Thermal Cycler) according to manufacturer's instructions, the plate was read in the QX200 Droplet Reader.

The subject of test [5] is CK2α1. The test is described as follows: CK2 levels in IL1-β-stimulated human primary astrocytes (Western blot). In kind it is cell-based. Conditions: after 5 hours. The protocol:
Western blotting. […] Cells were dissociated with 1:1 Accutase:papain for 3 min at rt, pelleted for 5 min at 800 g, and washed twice with cold DPBS. Pellets were lysed with RIPA buffer (Sigma R0278) supplemented with Halt protease inhibitor cocktail (Thermo Fisher 78445) and clarified by centrifugation (16,000 g, 10 min, 4° C.). Protein concentration was determined by BCA assay (Thermo Fisher). Proteins were denatured in 1×LDS Buffer and 2.5% beta-mercaptoethanol (X) for 10 min at 70° C., separated on Bolt 4-12% Bis-Tris Plus polyacrylamide gels (Thermo Fisher), transferred to PVDF membranes using the iBlot 2 Dry Blotting System, and blocked with 0.1% casein-PBS (Bio-Rad) for 1 h at room temperature. The blots were incubated with primary antibodies overnight at 4° C. in PBS containing 0.1% casein and 0.2% Tween-20. Antibodies used: rabbit anti-CK2a1 (Bethyl #, 1:5000), rabbit anti-CK2a2 (Bethyl #, 1:5000), mouse anti-GAPDH (Fitzgerald #10-1501, 1:20,000), mouse anti-NF-KB (CST #6956S, 1:1000), pNF-KB S529 (TFS #14-9864-82, 1:100), LC3B (CST 2775, 1:1000), ACO2 (CST 6922, 1:1000), rabbit HMGB1 (Novus #NB1002322, 1:1000), mouse anti-IκBα (CST #4814S, 1:1000), mouse anti-IκBa pS32 (SC #8404, 1:500), HA-tag (Bethyl #A190-108A, 1:20000). […] The blots were imaged using the Odyssey CLx imaging system and blots were analyzed on the ImageStudio software (LI-COR).
In general terms: Immunoblotting shows a protein as a band on a membrane.

Test [6] concerns the target T1, recombinant human CK2a1 kinase (Homo sapiens, UniProt P68400).
T1 construct: purchased Thermo Fisher PV3248
Briefly: In vitro kinase assay (PhosphoSens, Cysteine-Sox sensor peptide). The note with it: FIG. 4A. It is filed as biochemical. As to the method:
Kinase assays. In vitro kinase assays were run using the Cysteine-Sox-Kinase Sensor AQT0696, 96 assay Kit (AssayQuant Tech, CSKS-AQT0696). […] Slopes corresponding to linear reaction rates were obtained for each compound concentration (RFU/sec), normalized to DMSO controls, and IC50 values were determined by applying the dose response non-linear regression model in GraphPad Prism. For kinase assays using postmortem brain tissue lysates, brain tissues were homogenized at 4° C. using a Bullet Blender (Next Advance) in kinase buffer (20 mM HEPES 7.4 pH, 150 mM NaCl, 1% Triton-X, 1 mM EDTA, 1 mM EGTA plus Halt Protease and Phosphase Inhibitor Cocktail). After sonication and clarification, protein concentration was measured by BCA Assay. CK2 activity was measured as described above, except lysates were used instead of purified kinase at 2 μL/well (˜0.3-0.4 ug protein per reaction). […] Patient lysates were individually preincubated with 20 μM CX4945 for 30 min at room temperature before initiating kinase kinetic assays.

Each structure is given as a SMILES string.

T1 sequence (P68400 whole entry): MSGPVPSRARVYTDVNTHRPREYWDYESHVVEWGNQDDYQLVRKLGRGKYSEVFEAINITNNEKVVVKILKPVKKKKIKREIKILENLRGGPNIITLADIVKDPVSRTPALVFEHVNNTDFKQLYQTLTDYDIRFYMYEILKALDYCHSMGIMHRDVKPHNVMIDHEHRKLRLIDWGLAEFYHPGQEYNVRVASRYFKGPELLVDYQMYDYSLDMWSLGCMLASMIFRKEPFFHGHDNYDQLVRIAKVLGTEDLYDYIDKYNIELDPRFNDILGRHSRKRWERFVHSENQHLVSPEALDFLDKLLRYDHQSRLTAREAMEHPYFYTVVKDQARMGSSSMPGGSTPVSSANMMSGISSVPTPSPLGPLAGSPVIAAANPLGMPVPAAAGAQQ

Regarding `COc1cc(-c2cc(=O)c3c(O)cc(O)cc3o2)ccc1O` [CHR, chrysoeriol], the “IL1-β-induced increase of NF-κB nuclear intensity” value in test [1] is listed as “blocked”. Further, the “AKT pS129 levels” value in test [2] was “reduced”. The pCK2/CK2 in nuclei entry in test [3] is “reduced”. The “dose dependence of anti-inflammatory effects” value in test [4] was “dose-dependent”. Further, the CK2α1 levels entry in test [5] is “reduced to baseline”. For the same compound, the “inhibition of CK2a1 in vitro (activity class in words)” value in test [6] is recorded as “active”.
